Laboratory results: ChEMBL document CHEMBL5550106, “Recent advances in the exploration of oxazolidinone scaffolds from compound development to antibacterial agents and other bioactivities” (Eur J Med Chem, 2024)
Values after ≈ are worked out from the molar mass of the structure shown.

Experiments:
Haemophilus influenzae [1] = test: Antibacterial activity against Haemophilus influenzae assessed as bacterial growth inhibition measured after 16 to 24 hrs by broth microdilution assay; type: functional; details: time 16-24 hrs
Staphylococcus aureus [2] = test: Antibacterial activity against Methicillin-resistant Staphylococcus aureus assessed as inhibition of bacterial growth; type: functional
[3] = system: Staphylococcus epidermidis; test: Antibacterial activity against Methicillin-resistant Staphylococcus epidermidis assessed as inhibition of bacterial growth; type: functional
Coagulation factor X = Coagulation factor X (Homo sapiens, UniProt P00742); test: Inhibition of human factor Xa
[4] = Intrinsic clearance in mouse liver microsomes; type: ADME, Microsome; details: read-out: CLH
Staphylococcus aureus [5] = test: Antibacterial activity against methicillin-sensitive Staphylococcus aureus assessed as reduction in microbial growth by CLSI based broth microdilution method; type: functional
[6] = system: Mycobacterium tuberculosis; test: Antibacterial activity against Mycobacterium tuberculosis H37Rv assessed as inhibition of bacterial growth; type: functional
Staphylococcus aureus [7] = test: Antibacterial activity against Staphylococcus aureus HG001 assessed as reduction in bacterial cell growth incubated for 16 to 18 hrs by two-fold serial dilution method; type: functional; details: time 16-18 hrs
Pseudomonas aeruginosa [8] = test: Antibacterial activity against wild-type Pseudomonas aeruginosa PAO1 incubated for 24 hrs by broth microdilution method; type: functional
Pseudomonas aeruginosa [9] = test: Antibacterial activity against Pseudomonas aeruginosa PAO1 assessed as bacterial growth inhibition incubated for 24 hrs by microtiter plate reader analysis; type: functional
Staphylococcus aureus [10] = test: Antimicrobial activity against […] Staphylococcus aureus ATCC 25923 assessed as reduction in cell growth by microdilution method; type: functional
Enterococcus faecalis [11] = test: Antibacterial activity against vancomycin-resistant Enterococcus faecalis NR 31912 assessed as inhibition of bacterial growth; type: functional
[12] = system: Mycobacterium tuberculosis; test: Antitubercular activity against XDR Mycobacterium tuberculosis X24 assessed as bacterial growth inhibition measured for 9 days; type: functional; details: X24, 216 h, time 9 day
Staphylococcus aureus [13] = test: Antibacterial activity against Methicillin-sensitive Staphylococcus aureus ATCC 9144 assessed as reduction in bacterial growth; type: functional
Escherichia coli [14] = test: Antibacterial activity against efflux pump-efficient Escherichia coli MG1655 assessed as bacterial growth inhibition; type: functional
Escherichia coli [15] = test: Antibacterial activity against Escherichia coli MG1655 in presence of polymyxin B nonapeptide; type: functional
[16] = system: Staphylococcus epidermidis; test: Antibacterial activity against linezolid-resistant Staphylococcus epidermidis assessed as reduction in bacterial growth; type: functional
Staphylococcus aureus [17] = test: Antibacterial activity against Linezolid-resistant Staphylococcus aureus assessed as reduction in bacterial growth; type: functional
Staphylococcus aureus [18] = test: Antibacterial activity against Staphylococcus aureus assessed as reduction in bacterial growth incubated for 24 hrs by broth microdilution method; type: functional
Escherichia coli [19] = test: Antimicrobial activity against wild type Escherichia coli MG1655 assessed as inhibition of microbial growth; type: functional
[20] = system: Staphylococcus epidermidis; test: Antibacterial activity against Staphylococcus epidermidis assessed as reduction in microbial growth after 24 hrs by CLSI based microdilution method; type: functional
[21] = system: Staphylococcus epidermidis; test: Antibacterial activity against Methicillin-resistant Staphylococcus epidermidis assessed as bacterial growth inhibition; type: functional
[22] = system: Mycobacterium tuberculosis; test: Antibacterial activity against Mycobacterium tuberculosis H37Rv assessed as bacterial growth inhibition incubated for 8 days by resazurin assay; type: functional; details: 192 h, time 8 day
Staphylococcus aureus [23] = test: Antibacterial activity against Methicillin-resistant Staphylococcus aureus ATCC 33592 assessed as reduction in bacterial growth; type: functional
Haemophilus influenzae [24] = test: Antibacterial activity against Haemophilus influenzae assessed as bacterial growth inhibition; type: functional
Staphylococcus aureus [25] = test: Antibacterial activity against methicillin-sensitive Staphylococcus aureus assessed as reduction in bacterial growth incubated for 24 hrs by broth microdilution method; type: functional
Enterococcus faecium = test: Antibacterial activity against vancomycin-resistant Enterococcus faecium assessed as reduction in microbial growth CLSI-based double dilution method; type: functional
[26] = system: Mycobacterium tuberculosis; test: Antimycobacterial activity against Mycobacterium tuberculosis H37Rv assessed as bacterial growth inhibition incubated for 7 days by fluorescence based analysis; type: functional; details: 168 h, time 7 day
Staphylococcus aureus [27] = test: Antimicrobial activity against […] Staphylococcus aureus ATCC 25923 assessed as reduction in microbial growth; type: functional
[28] = system: Mycobacterium tuberculosis; test: Antimycobacterial activity against Mycobacterium tuberculosis H37Rv assessed as reduction in bacterial growth measured for 7 days by resazurin dye based assay; type: functional; details: 168 h, time 7 day
Enterococcus faecalis [29] = test: Antibacterial activity against vancomycin-resistant Enterococcus faecalis incubated for 18 hrs by broth microdilution method; type: functional
Staphylococcus aureus [30] = test: Antimicrobial activity against Methicillin-sensitive Staphylococcus aureus ATCC 29213 assessed as reduction in bacterial growth; type: functional
Staphylococcus aureus [31] = test: Antibacterial activity against Methicillin-resistant Staphylococcus aureus assessed as fold reduction in bacterial growth incubated for 14 to 16 hrs by microbroth dilution method; type: functional; details: time 14-16 hrs

Coagulation factor X, sequence (P00742 41-179 limits assumed): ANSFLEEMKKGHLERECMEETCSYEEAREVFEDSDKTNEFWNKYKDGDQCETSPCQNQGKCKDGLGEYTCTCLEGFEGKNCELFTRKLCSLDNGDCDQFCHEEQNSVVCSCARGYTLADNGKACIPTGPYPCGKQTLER
Coagulation factor X, sequence (P00742 235-488 limits assumed): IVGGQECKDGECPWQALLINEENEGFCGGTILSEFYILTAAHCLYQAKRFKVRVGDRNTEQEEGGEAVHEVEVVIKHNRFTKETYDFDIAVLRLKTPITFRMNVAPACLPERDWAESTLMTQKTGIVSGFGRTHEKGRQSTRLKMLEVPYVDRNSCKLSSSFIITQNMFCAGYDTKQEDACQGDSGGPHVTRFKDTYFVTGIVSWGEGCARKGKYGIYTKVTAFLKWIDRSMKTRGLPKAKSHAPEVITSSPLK

## C[S+]([O-])c1ccc(N2CC(CCl)OC2=O)cc1 (configuration not stated)
Haemophilus influenzae [1]
  MIC: 16 µg/mL (≈ 58.4 µM)

## CC(=O)NC[C@H]1CN(c2ccc([S+](C)[O-])cc2)C(=O)O1 (some centres not stated)
Staphylococcus aureus [2]
  MIC: 1 µg/mL (≈ 3.37 µM)
[3]
  MIC: 1 µg/mL (≈ 3.37 µM)

## CS(=O)(=O)c1ccccc1-c1ccc2c(c1)OC[C@H]1[C@H](CNC(=O)c3ccc(Cl)s3)OC(=O)N21
Coagulation factor X
  IC50: 30 nM

## O=C(NC[C@@H]1OC(=O)N2c3ccc(N4CCOCC4=O)cc3SC[C@@H]12)c1ccc(Cl)s1
Coagulation factor X
  IC50: 2 nM

## O=C(NC[C@@H]1OC(=O)N2c3ccc(N4CCCCC4=O)cc3SC[C@@H]12)c1ccc(Cl)s1
Coagulation factor X
  IC50: 4 nM

## O=C(NC[C@@H]1OC(=O)N2c3ccc(N4CCOCC4=O)cc3[S+]([O-])C[C@@H]12)c1ccc(Cl)s1 (some centres not stated)
Coagulation factor X
  IC50: 60 nM

## O=C(NC[C@@H]1OC(=O)N2c3ccc(N4CCOCC4=O)cc3S(=O)(=O)C[C@@H]12)c1ccc(Cl)s1
Coagulation factor X
  IC50: 20 nM

## O=C(NC[C@@H]1OC(=O)N2c3ccc(N4CCOCC4=O)cc3CC[C@@H]12)c1ccc(Cl)s1
Coagulation factor X
  IC50: 4 nM

## O=C(NC[C@@H]1OC(=O)N2c3ccc(N4CCCCC4=O)cc3CC[C@@H]12)c1ccc(Cl)s1
Coagulation factor X
  IC50: 6 nM

## O=C(NC[C@@H]1OC(=O)N2c3ccc(N4CCOCC4=O)cc3NC[C@@H]12)c1ccc(Cl)s1
Coagulation factor X
  IC50: 5 nM

## CC(=O)NC[C@H]1CN(c2ccc(N3CCC(Nc4ccc(Br)cc4)CC3)c(F)c2)C(=O)O1
[4]
  CLint scaled: 3.46 mL/min/kg

## C[C@H](NC(=O)[C@H](NC(=O)OCC1c2ccccc2-c2ccccc21)[C@H](C)OC(C)(C)C)[C@H]1CN(c2ccc(N3CCOCC3)c(F)c2)C(=O)O1
Staphylococcus aureus [5]
  MIC: 6.25 µg/mL

## CC(C)(C)C[C@@H](NC(=O)OCC1c2ccccc2-c2ccccc21)C(=O)N[C@@H](Cc1ccccc1)[C@H]1CN(c2ccc(N3CCOCC3)c(F)c2)C(=O)O1
[6]
  MIC: 1.9 µg/mL (≈ 2.59 µM)

## CC(=O)NCC1CN(c2ccc(N3CCN(C(=O)CCOCCOCn4cc(CNC(=O)C(CCCCNC(=O)c5cccc(O)c5O)NC(=O)c5cccc(O)c5O)nn4)CC3)c(F)c2)C(=O)O1 (configuration not stated)
Staphylococcus aureus [7]
  MIC: > 64 µM

## CC(=O)NCC1CN(c2ccc(N3CCN(C(=O)COn4cc(CNC(=O)C(CNC(=O)C(CNC(=O)CNC(=O)c5cccc(O)c5O)NC(=O)c5cccc(O)c5O)NC(=O)c5cccc(O)c5O)nn4)CC3)c(F)c2)C(=O)O1 (configuration not stated)
Pseudomonas aeruginosa [8]
  MIC: > 64 µM
Pseudomonas aeruginosa [9]
  MIC: 16 µM (≈ 18 µg/mL)

## CC(=O)NCC1CN(c2ccc(N3CCN(C(=O)COn4cc(CNC(=O)C(CCCCNC(=O)c5cccc(O)c5O)NC(=O)c5cccc(O)c5O)nn4)CC3)c(F)c2)C(=O)O1 (configuration not stated)
Staphylococcus aureus [7]
  MIC: > 64 µM

## NS(=O)(=O)c1ccc(N2C[C@H](CO)OC2=O)cc1
Haemophilus influenzae [1]
  MIC: 16 µg/mL (≈ 58.8 µM)

## CC(C)(C)Oc1ccc(C[C@H](NC(=O)OCC2c3ccccc3-c3ccccc32)C(=O)N[C@@H](Cc2ccccc2)[C@@H]2CN(c3ccc(N4CCOCC4)c(F)c3)C(=O)O2)cc1
[6]
  MIC: 12.5 µg/mL (≈ 15.1 µM)

## CC(=O)NCC1CN(c2ccc(N3CCN(C(=O)CCOCCOCn4cc(CNC(=O)C(CNC(=O)C(CNC(=O)CNC(=O)c5cccc(O)c5O)NC(=O)c5cccc(O)c5O)NC(=O)c5cccc(O)c5O)nn4)CC3)c(F)c2)C(=O)O1 (configuration not stated)
Pseudomonas aeruginosa [8]
  MIC: > 64 µM
Pseudomonas aeruginosa [9]
  MIC: 64 µM (≈ 76.8 µg/mL)

## CN1CCN(c2ccc(N3C[C@H](CO)OC3=O)cc2F)C=N1 [DELPAZOLID]
Staphylococcus aureus [10]
  MIC90: 1 µg/mL
Enterococcus faecalis [11]
  MIC90: 0.5 µg/mL (≈ 1.62 µM)
[12]
  MIC90: 0.5 µg/mL (≈ 1.62 µM)
Staphylococcus aureus [13]
  MIC90: 1 µg/mL (≈ 3.24 µM)

## CC(=O)NC[C@H]1CN(c2ccc(C(C)=O)cc2)C(=O)O1 [DUP-721]
Staphylococcus aureus [2]
  MIC: 4 µg/mL (≈ 14.5 µM)
[3]
  MIC: 4 µg/mL (≈ 14.5 µM)

## CC(=O)NC[C@H]1CN(c2ccc(N3CCOCC3)c(F)c2)C(=O)O1 [LINEZOLID]
[6]
  MIC: 1.56 µg/mL (≈ 4.62 µM)
Escherichia coli [14]
  MIC: 11 µg/mL (≈ 32.6 µM)
Escherichia coli [15]
  MIC: 36 µg/mL
[16]
  MIC: > 32 µg/mL
Staphylococcus aureus [17]
  MIC: > 32 µg/mL
Staphylococcus aureus [18]
  MIC: 3.1 µg/mL (≈ 9.19 µM)
Escherichia coli [19]
  MIC: 130 µg/mL
[20]
  MIC: 2 µg/mL
[21]
  MIC: 2 µg/mL (≈ 5.93 µM)
Pseudomonas aeruginosa [9]
  MIC: 4 µM (≈ 1.35 µg/mL)

## O=C([C@@H](O)CO)N1CC=C(c2c(F)cc(N3C[C@H](COc4ccon4)OC3=O)cc2F)CC1 [POSIZOLID]
[22]
  MIC90: 1 µg/mL (≈ 2.15 µM)

## CC(=O)NC[C@H]1CN(c2ccc(-c3ccc(CNCc4cnn[nH]4)cc3)c(F)c2)C(=O)O1 [RADEZOLID]
Staphylococcus aureus [23]
  MIC90: 0.5 µg/mL (≈ 1.14 µM)
Haemophilus influenzae [24]
  MIC90: 0.5 µg/mL (≈ 1.14 µM)
Staphylococcus aureus [25]
  MIC90: 0.5 µg/mL (≈ 1.14 µM)
Enterococcus faecium
  MIC90: 0.5 µg/mL

## CC(=O)NC[C@H]1CN(c2ccc(N3CCSCC3)c(F)c2)C(=O)O1 [SUTEZOLID]
[26]
  MIC: 0.03 µg/mL (≈ 0.0849 µM)

## Cn1nnc(-c2ccc(-c3ccc(N4C[C@H](COP(=O)(O)O)OC4=O)cc3F)cn2)n1 [TEDIZOLID PHOSPHATE]
Staphylococcus aureus [27]
  MIC90: 0.12 µg/mL
[28]
  MIC90: 0.125 µg/mL
Enterococcus faecalis [29]
  MIC90: 0.12 µg/mL
Staphylococcus aureus [30]
  MIC90: 0.12 µg/mL

## Cn1nnc(-c2ccc(-c3ccc(N4C[C@H](CO)OC4=O)cc3F)cn2)n1 [TEDIZOLID]
Staphylococcus aureus [27]
  MIC90: 0.25 µg/mL
Enterococcus faecalis [29]
  MIC90: 0.5 µg/mL (≈ 1.35 µM)
Staphylococcus aureus [30]
  MIC90: 0.25 µg/mL (≈ 0.675 µM)
Staphylococcus aureus [31]
  fold change (FC): 4
